This note sets out measurements from US20140235587A1, “SUBSTITUTED PYRAZOLES AS SPHINGOSINE RECEPTOR MODULATORS” (Allergan, Inc., priority 2013, published 2014).

This assay deals with T1, human S1P1 receptor (Homo sapiens, UniProt P21453).
T1 construct: expressed in transfected cells; membranes used
As to the kind of experiment: GTP γ35S binding assay for S1P1 activity. It is filed as biochemical. The conditions noted are these: membranes of cells stably expressing S1P1; test compounds 0.08 to 5,000 nM; 30 min at 25° C.; read-out: S1P1 EC50 (Activity potency: S1P1 receptor from GTP γ35S). The protocol:
Compounds were tested for S1P1 activity using the GTP γ^35S binding assay. These compounds may be assessed for their ability to activate or block activation of the human S1P1 receptor in cells stably expressing the S1P1 receptor. GTP γ^35S binding was measured in the medium containing (mM) HEPES 25, pH 7.4, MgCl2 10, NaCl 100, dithitothreitol 0.5, digitonin 0.003%, 0.2 nM GTP γ^35S, and 5 μg membrane protein in a volume of 150 μl. Test compounds were included in the concentration range from 0.08 to 5,000 nM unless indicated otherwise. Membranes were incubated with 100 μM 5′-adenylylimmidodiphosphate for 30 min, and subsequently with 10 μM GDP for 10 min on ice. Drug solutions and membrane were mixed, and then reactions were initiated by adding GTP γ^35S and continued for 30 min at 25° C. Reaction mixtures were filtered over Whatman GF/B filters under vacuum, and washed three times with 3 mL of ice-cold buffer (HEPES 25, pH7.4, MgCl2 10 and NaCl 100). Filters were dried and mixed with scintillant, and counted for ^35S activity using a β-counter. Agonist-induced GTP γ^35S binding was obtained by subtracting that in the absence of agonist. Binding data were analyzed using a non-linear regression method. In case of antagonist assay, the reaction mixture contained 10 nM S1P in the presence of test antagonist at concentrations ranging from 0.08 to 5000 nM.
For orientation: GTPγS resists hydrolysis and so accumulates on activated G proteins.

T1 sequence (P21453 whole entry): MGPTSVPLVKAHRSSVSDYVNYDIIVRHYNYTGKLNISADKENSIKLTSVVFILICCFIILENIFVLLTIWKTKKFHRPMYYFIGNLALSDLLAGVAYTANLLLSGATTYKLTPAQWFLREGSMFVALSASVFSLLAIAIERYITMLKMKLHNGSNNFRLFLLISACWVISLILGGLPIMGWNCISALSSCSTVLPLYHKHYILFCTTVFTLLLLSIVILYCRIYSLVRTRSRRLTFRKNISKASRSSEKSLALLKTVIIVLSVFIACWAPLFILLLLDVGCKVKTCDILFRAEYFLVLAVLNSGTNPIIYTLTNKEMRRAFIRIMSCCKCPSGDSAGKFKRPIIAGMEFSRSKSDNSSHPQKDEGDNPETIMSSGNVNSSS

As usually defined, the EC50 is the concentration needed to bring the measured effect to its halfway point. Regarding `CCCN1N=C(c2nc(-c3ccc(CNCCCP(=O)(O)O)cc3)no2)CC1c1ccccc1` (centres unmarked) [Compound 1, [3-({4-[5-(5-phenyl-1-propyl-4,5-dihydro-1H-pyrazol-3-yl)-1,2,4-oxadiazol-3-yl]benzyl}amino)propyl]phosphonic acid], the concentration giving a half-maximal response (EC50) worked out at 18 nM.

Take `CN1N=C(c2nc(-c3ccc(CNCCCP(=O)(O)O)cc3)no2)CC1c1ccccc1` (centres unmarked) [Compound 2, [3-({4-[5-(1-methyl-5-phenyl-4,5-dihydro-1H-pyrazol-3-yl)-1,2,4-oxadiazol-3-yl]benzyl}amino)propyl]phosphonic acid]: the EC50 came to 6.5 nM.

As for `CCN1N=C(c2nc(-c3ccc(CNCCCP(=O)(O)O)cc3)no2)CC1c1ccccc1` (centres unmarked) [Compound 4, [3-({4-[5-(1-ethyl-5-phenyl-4,5-dihydro-1H-pyrazol-3-yl)-1,2,4-oxadiazol-3-yl]benzyl}amino)propyl]phosphonic acid], the EC50 is 25 nM.

Consider `CCN1N=C(c2nc(-c3ccc(CNCCC(=O)O)cc3)no2)CC1c1ccccc1` (centres unmarked) [Compound 5, 3-({4-[5-(1-ethyl-5-phenyl-4,5-dihydro-1H-pyrazol-3-yl)-1,2,4-oxadiazol-3-yl]benzyl}amino)propanoic acid], for which the concentration for a half-maximal effect (EC50) was found to be 274 nM.

Take `CCN1N=C(c2nc(-c3cc(F)c(CNCCCP(=O)(O)O)c(F)c3)no2)CC1c1ccccc1` (centres unmarked) [Compound 6, [3-({4-[5-(1-ethyl-5-phenyl-4,5-dihydro-1H-pyrazol-3-yl)-1,2,4-oxadiazol-3-yl]-2,6-difluorobenzyl}amino)propyl]phosphonic acid]: the EC50 was 5.4 nM.

In the case of `CCN1N=C(c2nc(-c3cc(F)c(CNCCC(=O)O)c(F)c3)no2)CC1c1ccccc1` (centres unmarked) [Compound 7, 3-({4-[5-(1-ethyl-5-phenyl-4,5-dihydro-1H-pyrazol-3-yl)-1,2,4-oxadiazol-3-yl]-2,6-difluorobenzyl}amino)propanoic acid], the EC50 came out at 42 nM.

`CCN1N=C(c2nc(-c3ccc(CNCCCP(=O)(O)O)cc3F)no2)CC1c1ccccc1` (centres unmarked) [Compound 8, [3-({4-[5-(1-ethyl-5-phenyl-4,5-dihydro-1H-pyrazol-3-yl)-1,2,4-oxadiazol-3-yl]-3-fluorobenzyl}amino)propyl]phosphonic acid]: the EC50 was determined as 11 nM.

Consider `CCN1N=C(c2nc(-c3ccc(CNCCC(=O)O)cc3F)no2)CC1c1ccccc1` (centres unmarked) [Compound 9, 3-({4-[5-(1-ethyl-5-phenyl-4,5-dihydro-1H-pyrazol-3-yl)-1,2,4-oxadiazol-3-yl]-3-fluorobenzyl}amino)propanoic acid], for which the EC50 came to 49 nM.

For the compound `CCc1cc(-c2noc(C3=NN(CC)C(c4ccccc4)C3)n2)ccc1CNCCCP(=O)(O)O` (centres unmarked) [Compound 10, [3-({2-ethyl-4-[5-(1-ethyl-5-phenyl-4,5-dihydro-1H-pyrazol-3-yl)-1,2,4-oxadiazol-3-yl]benzyl}amino)propyl]phosphonic acid], the EC50 was found to be 2.6 nM.

In the case of `CCc1cc(-c2noc(C3=NN(CC)C(c4ccccc4)C3)n2)ccc1CNCCC(=O)O` (centres unmarked) [Compound 11, 3-({2-ethyl-4-[5-(1-ethyl-5-phenyl-4,5-dihydro-1H-pyrazol-3-yl)-1,2,4-oxadiazol-3-yl]benzyl}amino)propanoic acid], the EC50 was 21 nM.

Regarding `CCCN1N=C(c2nc(-c3ccc(CNCCC(=O)O)cc3)no2)CC1c1ccccc1` (centres unmarked) [Compound 12, 3-({4-[5-(5-phenyl-1-propyl-4,5-dihydro-1H-pyrazol-3-yl)-1,2,4-oxadiazol-3-yl]benzyl}amino)propanoic acid], the concentration giving a half-maximal response (EC50) came to 65 nM.
